From the NIST ThermoML archive (doi:10.1016/j.fluid.2014.03.008)
± gives the expanded uncertainty stated by the source.

How the values were obtained:
[1] = Liquid; for mass density: 101.33 kPa, Vibrating tube method; for Normal boiling temperature: Ebulliometric method (Recirculating still)
[2] = refractive index (Na D-line) (dimensionless); conditions: 101.33 kPa, Liquid, Standard Abbe refractometry

Structure (SMILES) | mass density ([1]; 293.15 K) | Normal boiling temperature [1] | refractive index ([2]; 293.15 K) | mass density ([1]; 298.15 K) | refractive index ([2]; 298.15 K)
CC(=O)c1ccccc1 [acetophenone] | 1027.9 ± 0.9 kg/m3 | 202.0 ± 0.2 °C | 1.5361 ± 0.012 |  | 
CCCC(=O)O [butanoic acid] |  | 163.7 ± 0.2 °C | 1.3982 ± 0.012 | 952.6 ± 0.24 kg/m3 | 
CCOC(=O)CC(=O)OCC [diethyl 1,3-propanedioate] | 1055.25 ± 0.95 kg/m3 | 199.90 ± 0.2 °C | 1.4135 ± 0.012 |  | 
CCCC(=O)OCC [ethyl butanoate] |  | 121.40 ± 0.2 °C |  | 873.25 ± 0.7 kg/m3 | 1.3891 ± 0.012

Other lines, results leading:

mass density ([1]; 293.15 K) | Normal boiling temperature [1] | refractive index ([2]; 293.15 K) | mass density ([1]; 298.15 K) | refractive index ([2]; 298.15 K) | Structure (SMILES)
877.15 ± 0.24 kg/m3 | 146.2 ± 0.2 °C | 1.4125 ± 0.012 |  |  | CCCCC(=O)OCC [ethyl pentanoate]
 | 195.1 ± 0.2 °C | 1.428 ± 0.012 | 825.95 ± 0.24 kg/m3 |  | CCCCCCCCO [octan-1-ol]
999.7 ± 0.08 kg/m3 | 100.10 ± 0.2 °C | 1.3325 ± 0.012 |  |  | O [water]
